One molecule from PMC4234445 (ACS Medicinal Chemistry Letters, 2014) can be followed below.

What is called IC50 is the concentration that gives 50% inhibition.

The test system of data set [1] is JAK1/2, ABL, and FLT-3. Description: DiscoveRx KINOMEscan, upstream STAT5 activating kinases. Type of data set: binding. Conditions: 5 μM.
Data set [2] deals with healthy human CD34+ umbilical cord cells. Description: Cell viability in healthy human CD34+ umbilical cord cells. Type of data set: cell-based.
For data set [3], the system named is pSTAT3. Description: Western blot of pSTAT3 in MDA-MB-231 cells. Type of data set: cell-based. (Immunoblotting shows a protein as a band on a membrane.)
Data set [4] relates to MV-4;11 (FLT3-ITD) cells. Description: CellTiter-Blue cell viability assay in MV-4. Type of data set: cell-based, human. (In general: Resazurin is reduced to fluorescent resorufin, in cell work by metabolically active cells.)
Data set [5] relates to MYC. Description: Western blot of STAT5 transcriptional target MYC in K562 cells. As to conditions: 5 h. In kind it is cell-based, human.
Data set [6] relates to phosphorylated STAT5 (Y694). In words: Western blot of phosphorylated STAT5. In kind it is cell-based, human. As to conditions: K562 cells, 5 h treatment.
The test system of data set [7] is K562 cells. In words: Western blot of apoptosis markers. In kind it is cell-based, human. Conditions: 24 h, 15 μM.
In data set [8] the test system is MCL-1. Description: Western blot of STAT5 transcriptional target MCL-1 in K562 cells. Conditions: 24 h, 15 μM. In kind it is cell-based, human.

“Also recorded” adds a separate entry of the source.

`CC(C)(C)c1cc(CN(C(=O)CN(Cc2ccc(Cl)cc2)S(=O)(=O)c2c(F)c(F)c(F)c(F)c2F)c2ccc(C(=O)O)c(O)c2)cc(C(C)(C)C)c1` [13a]: in data set [1], the “effect against upstream STAT5 activating kinases JAK1/2, ABL, FLT-3” value is reported as “negligible effects”. In data set [2], the “difference in sensitivity CD34+ vs MV4-11 (therapeutic window)” value is recorded as “approximate order of magnitude”. In data set [2] (10 μM), the “cell viability of healthy CD34+ cells” value is reported as “little reduction in cell viability; also recorded: limited effect on cell viability”. The pSTAT3 inhibition result in data set [3] (MDA-MB-231, doses corresponding to pSTAT5 inhibition in leukemic cell line) is “not inhibited”. Also, the “effect on pSTAT3” value in data set [3] (MDA-MB-231 cells, up to 20 μM) was “no effect”. In addition, the “cell viability of MV4-11 cells” value in data set [4] (10 μM) is “abolished”. In data set [4] (Homo sapiens, MV4-11, 72 h, read-out: IC50, cell viability MV4;11), the 50% inhibitory concentration (IC50) was determined as 3.5 µM. Further, in data set [5], the “MYC (c-Myc) expression” value was “dose-dependent decreases; also recorded: Knockdown”. For the same molecule, in data set [6], the “concentration at which pSTAT5 is ablated” value is listed as “above 10 μM” and the “pSTAT5 (Y694) levels” value is reported as “decreased pSTAT5 in a dose dependent manner”. Also, the “cell death / apoptosis (cleaved PARP-1, Caspase-3)” value in data set [7] was “undergo cell death; also recorded: Initiation of apoptosis”. In addition, in data set [8], the MCL-1 expression entry was “complete knockdown”.
